Experimental findings from PubChem BioAssay (NCI) are described below.

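Tested at 5 concentrations; 48 h exposure; 96-well plates; endpoints linearly interpolated, else capped at highest concentration. GI50 = concentration required for 50% inhibition of growth. The concentration for full growth arrest is given as TGI.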 A value given as a limit tells only on which side of the number the result lay.

Among the test systems are HCC-2998 colon; RPMI-8226 leukemia; NCI-H460 lung; EKVX NSCLC; UACC-62 melanoma; MALME-3M melanoma; COLO 205 colon; IGROV1 ovarian; LOX IMVI melanoma; SF-539 CNS; SF-268 CNS; A549 NSCLC.
What all share (assay): NCI anticancer screen, dose series, 48 h

`CC(CNc1nc(Nc2ccc(Cl)c(Cl)c2)nc(C(Cl)(Cl)Cl)n1)N(C)C` (centres undefined): the GI50 with HCC-2998 colon was 1.58 µM; in the test with RPMI-8226 leukemia, 1.85 µM; in the test on NCI-H460 lung, 1.66 µM; with EKVX NSCLC, 1.99 µM; with UACC-62 melanoma, 1.71 µM; with MALME-3M melanoma it was 1.79 µM. Also, in the test on COLO 205 colon, the GI50 was 1.83 µM. In addition, the TGI with HCC-2998 colon is 3.04 µM; with RPMI-8226 leukemia it was 4.58 µM; in the test with NCI-H460 lung it was 3.11 µM; in the test with EKVX NSCLC it was 4.62 µM; in the test on UACC-62 melanoma it was 3.11 µM; with MALME-3M melanoma it was 3.79 µM. The TGI in the test on COLO 205 colon worked out at 3.39 µM.
Regarding `CC1CC(c2ccc([N+](=O)[O-])cc2)=Nc2ccccc2S1=O` (centres undefined), the TGI was found to be 31.8 µM in the test on IGROV1 ovarian; 25.6 µM in the test on LOX IMVI melanoma; 36.8 µM with HCC-2998 colon; 31.9 µM in the test with RPMI-8226 leukemia; 45 µM with SF-539 CNS; 44.1 µM in the test on SF-268 CNS. In addition, the TGI in the test with NCI-H460 lung worked out at 34.3 µM; with EKVX NSCLC, 60.9 µM; in the test with UACC-62 melanoma, 38.8 µM; in the test with COLO 205 colon, 33.5 µM; with A549 NSCLC, 41.4 µM.
Turning to `C/C=C1/C(=O)O[C@]23C=C[C@@H]4C(C(=O)OC)=CO[C@H](O[C@@H]12)[C@@H]43`, the TGI with IGROV1 ovarian turned out to be 4.88 µM; with LOX IMVI melanoma it was 0.725 µM; with HCC-2998 colon, 5.99 µM; with RPMI-8226 leukemia, 3.4 µM; in the test with SF-539 CNS, 7.39 µM; in the test on SF-268 CNS it was 5.62 µM. Moreover, the TGI in the test on NCI-H460 lung turned out to be 32.4 µM; in the test on EKVX NSCLC, 3.64 µM; in the test on UACC-62 melanoma it was 2.89 µM; in the test with MALME-3M melanoma it was 5.61 µM; in the test with COLO 205 colon, 3.29 µM; with A549 NSCLC, 11.1 µM.
As to `CCc1ncc(C(C)(O)c2ccccc2)n1Cc1ccccc1` (centres undefined), the TGI with IGROV1 ovarian was above 100 µM; in the test on LOX IMVI melanoma, 94 µM; in the test on RPMI-8226 leukemia, above 100 µM; in the test with SF-539 CNS, above 100 µM; in the test on SF-268 CNS it was above 100 µM; in the test with NCI-H460 lung, above 100 µM. The TGI in the test on EKVX NSCLC is above 100 µM; with UACC-62 melanoma, 54.2 µM; in the test with MALME-3M melanoma, above 100 µM; in the test with COLO 205 colon it was above 100 µM; in the test on A549 NSCLC, above 100 µM.
With `Cc1ccc(C(=O)N/N=C(\N=Nc2ccccc2)c2ccc(N(CCC#N)CCC#N)cc2C)cc1`, the TGI is above 100 µM with IGROV1 ovarian; above 100 µM in the test on LOX IMVI melanoma; above 100 µM with HCC-2998 colon; above 100 µM with RPMI-8226 leukemia; 39.9 µM with SF-539 CNS; 61.7 µM in the test with SF-268 CNS. For the same compound, the TGI with NCI-H460 lung, in the test on EKVX NSCLC, in the test with UACC-62 melanoma, in the test with COLO 205 colon and in the test with A549 NSCLC was above 100 µM in each case.
